In PMC8510478, “Characterization and Identification of Bioactive Polyphenols in the Trapa bispinosa Roxb. Pericarp Extract” (Molecules, 2021):
Where a name gives a salt, the structure may show the parent alone. Read-outs that look alike come from different tables or passages of the source.

Experiments:
[1] = biological target: α-glucosidase; assay: α-Glucosidase inhibitory activity (rat intestinal acetone powder, maltose substrate); format: biochemical; conditions: for IC50: maltose, pH 7, 37 °C, means ± SE (n = 3), read-out: Inhibitory Effects on α-Glucosidase Activity IC50
Method: The α-glucosidase inhibitory activity was tested according to the previously described method by Kirino et al. with a slight modification. Rat intestinal acetone powder was mixed with 0.1 M phosphate buffer (pH 7) and centrifuged at 18,500× g and 4 °C for 20 min. The resulting supernatant was collected and used as a glucosidase solution for enzymatic assay. Each sample solution (160 μL) was mixed with 250 mM maltose solution (20 μL) in 0.2 M phosphate buffer (pH 7) and then incubated at 37 °C for 3 min. After incubation, the enzymatic reaction was started by adding glucosidase solution from the rat intestine (20 μL) and the resulting reaction mixtures were further incubated at 37 °C for 15 min. After 15 min, the reaction mixtures were immediately heated at 100 °C for 5 min to stop the reaction followed by cooling on ice for 5 min. The amount of glucose in the reaction mixtures was determined using the F-Kit glucose (Roche diagnostics, Co., Tokyo, Japan) by measuring the absorbance at 340 nm. A control was carried out with 0.1 M phosphate buffer (pH 7) instead of sample solution. For the blank, the glucosidase solution was replaced with distilled water. The glucosidase inhibitory rates of tested samples were calculated as; Inhibitory rate (%) = 100 − [(Asample − Ablank)/(Acontrol − Ablank)] × 100(1) where Asample, Acontrol, and Ablank is the absorbance of the tested sample, control, and blank, respectively. The experimental data are represented as IC50 (μM) values.

[2] = system: AGE formation in human serum albumin (HSA)/glucose or fructose; assay: Inhibitory effect on AGE formation (HSA with glucose or fructose, fluorescence); format: biochemical; conditions: 60 °C, 40 h, means ± SE (n = 3)
Method: The antiglycation effects of compounds isolated from TBE and several other related compounds were evaluated based on their AGE inhibitory activities as described previously, with slight modifications. Briefly, the sample solution was added to a reaction mixture containing 83.3 mM phosphate buffer (pH 7.2), 2.0 M glucose, 2.0 M fructose, 8.0 mg/mL human serum albumin (HSA), and distilled water (6:1:1:1:1, v/v). As a control, the vehicle was supplemented instead of the sample solution. For each blank, glucose or fructose was replaced with distilled water, and the total volume was set to 1000 μL. After incubation of the sample mixture at 60 °C for 40 h, the solutions were diluted 8-fold with distilled water, dispensed into a black microplate in 200 µL portions, and their fluorescence intensities were measured at excitation and emission wavelengths of 370 and 465 nm, respectively, using a Power Scan HT (DS Pharma Biomedical Co. Ltd., Osaka, Japan). The inhibitory rate was calculated as; Inhibitory rate (%) = 100 − [(S − SB)/(C − CB)] × 100(2) where S is the relative intensity of the sample solution, C is the relative intensity of the control solution, and SB and CB are the intensities of the glucose or fructose-omitted blank solutions. The experimental data are represented as IC50 (μM) values.

[3] = AGE-derived crosslink-cleaving effect (PPD cleavage to benzoic acid, HPLC); conditions: for Crosslink-Cleaving Activities Relative Ratio: tested samples 100 μg/mL, relative to PTB = 100, means ± SE (n = 3); for AGE cross-link cleaving activity (in words): compared with positive control PTB
Method: The AGE crosslink-cleaving activity of the same samples was evaluated according to the previously described method by Kato et al. with a slight modification. Briefly, the 1 mg/mL of tested samples prepared with H2O were mixed with 1.13 mM PPD solution in MeOH:50 mM phosphate buffer (pH 7.4) (1:1) and incubated at 37 °C for 4 h. After 4 h, the reaction was stopped with 200 μL of 2 M HCl, then the stopped reaction mixtures were centrifuged at 8200× g for 5 min. The amount of benzoic acid in the supernatant was measured by reversed-phase HPLC. The following conditions were applied: column, InertSustain C18 column (150 mm × 4.6 i.d mm., 5 μm); mobile phase, 50 mM phosphate buffer (pH 2.2):CH3CN (80:20) (solvent A) and 50 mM phosphate buffer (pH 2.2):CH3CN (50:50) (solvent B), the gradient program, 0–20 min (solvent B: 0–25%), 20–25 min (solvent B: 25–100%), 25–36 min (solvent B: 100–25%); column temperature, 40 °C; detection, UV at 230 nm; flow rate, 1.0 mL/min. These cleaving effects were calculated as equivalents to benzoic acid.

[4] = biological target: α-glucosidase; set-up: method as in earlier work; conditions: cited from earlier work; for IC50: table lines marked with reference 8, means ± SE (n = 3), read-out: Inhibitory Effects on α-Glucosidase Activity IC50; for Inhibitory activity on α-glucosidase (in words): ellagitannin dimers isolated from T. japonica
[5] = HSA/fructose, read-out: Inhibitory Effects on AGE Formation IC50, Fructose
[6] = HSA/glucose, read-out: Inhibitory Effects on AGE Formation IC50, Glucose

Row | Molecule | IC50 [1] [µM] | IC50 [2, 5] [µM] | IC50 [2, 6] [µM] | Crosslink-Cleaving Activities Relative Ratio [3] | IC50 [4] [µM] | α-Glucosidase inhibitory activity (in words) [1] | AGE cross-link cleaving activity (in words) [3] | Inhibitory activity on α-glucosidase (in words) [4]
1 | O=C(OC[C@H]1O[C@@H](OC(=O)c2cc(O)c(O)c(O)c2)[C@H](OC(=O)c2cc(O)c(O)c(O)c2)[C@@H](OC(=O)c2cc(O)c(O)c(O)c2)[C@@H]1OC(=O)c1cc(O)c(O)c(O)c1)c1cc(O)c(O)c(O)c1 [1,2,3,4,6-Penta-O-galloyl-β-D-glucose, reference compound] | 59 ± 0.4 | 0.2 | 0.2 | 97.9 ± 2.1 | – | – | – | –
2 | N=C(N)NN [Aminoguanidine, aminoguanidine hydrochloride, reference compound] | – | 801 ± 17.7 | 259 ± 6.8 | – | – | – | – | –
3 | O=C(OC[C@H]1O[C@@H](O)[C@H](OC(=O)c2cc(O)c(O)c(O)c2)[C@@H](O)[C@@H]1O)c1cc(O)c(O)c(O)c1 [Compound 1, 2,6-di-O-galloyl-β-D-glucose] | – | 3.3 | 1.5 ± 0.1 | 77.4 ± 4.0 | – | – | – | –
4 | O=C(O[C@@H]1O[C@H](CO)[C@@H](O)[C@H](OC(=O)c2cc(O)c(O)c(O)c2)[C@H]1OC(=O)c1cc(O)c(O)c(O)c1)c1cc(O)c(O)c(O)c1 [Compound 2, 1,2,3-tri-O-galloyl-β-D-glucose] | – | 0.4 | 0.4 | 190.5 ± 2.5 | > 100 | – | – | –
5 | O=C(OC[C@H]1O[C@@H](OC(=O)c2cc(O)c(O)c(O)c2)[C@H](OC(=O)c2cc(O)c(O)c(O)c2)[C@@H](O)[C@@H]1O)c1cc(O)c(O)c(O)c1 [Compound 3, 1,2,6-tri-O-galloyl-β-D-glucose] | – | 0.4 | 0.3 | 146.6 ± 12.6 | > 100 | – | – | –
6 | O=C(OC[C@H]1O[C@@H](O)[C@H](OC(=O)c2cc(O)c(O)c(O)c2)[C@@H](OC(=O)c2cc(O)c(O)c(O)c2)[C@@H]1O)c1cc(O)c(O)c(O)c1 [Compound 4, 2,3,6-tri-O-galloyl-β-D-glucose] | – | 1 | 0.3 | – | – | – | – | –
7 | O=C(OC[C@H]1O[C@@H](OC(=O)c2cc(O)c(O)c(O)c2)[C@H](OC(=O)c2cc(O)c(O)c(O)c2)[C@@H](OC(=O)c2cc(O)c(O)c(O)c2)[C@@H]1O)c1cc(O)c(O)c(O)c1 [Compound 5, 1,2,3,6-tetra-O-galloyl-β-D-glucose] | – | 0.3 | 0.3 | 209.0 ± 33.7 | > 100 | – | – | –
8 | O=C(OC[C@H]1O[C@@H](OC(=O)c2cc(O)c(O)c(O)c2)[C@H](OC(=O)c2cc(O)c(O)c(O)c2)[C@@H](O)[C@@H]1OC(=O)c1cc(O)c(O)c(O)c1)c1cc(O)c(O)c(O)c1 [Compound 6, 1,2,4,6-tetra-O-galloyl-β-D-glucose] | > 100 | 0.3 | 0.3 | 159.6 ± 12.7 | – | – | – | –
9 | O=C(OC1O[C@@H]2COC(=O)c3cc(O)c(O)c(O)c3-c3c(cc(O)c(O)c3O)C(=O)O[C@H]2[C@H](OC(=O)c2cc(O)c(O)c(O)c2)[C@H]1OC(=O)c1cc(O)c(O)c(O)c1)c1cc(O)c(O)c(O)c1 (stereo partly shown) [Compound 7, tellimagrandin II] | – | 0.3 | 0.2 | 230.8 ± 12.2 | > 100 | – | – | –
10 | O=C(O[C@@H]1O[C@@H]2COC(=O)c3cc(Oc4ccc(O)c(O)c4O)c(O)c(O)c3-c3c(cc(O)c(O)c3O)C(=O)O[C@H]2[C@H](OC(=O)c2cc(O)c(O)c(O)c2)[C@H]1OC(=O)c1cc(O)c(O)c(O)c1)c1cc(O)c(O)c(O)c1 [Compound 8, decarboxylated rugosin A] | 20.7 ± 0.1 | 0.3 | 0.3 | 233.0 ± 5.8 | – | – | – | –
11 | O=C(O[C@@H]1O[C@@H]2COC(=O)c3cc(Oc4c(C(=O)O[C@H]5C(O)O[C@@H]6COC(=O)c7cc(O)c(O)c(O)c7-c7c(cc(O)c(O)c7O)C(=O)O[C@H]6[C@@H]5OC(=O)c5cc(O)c(O)c(O)c5)cc(O)c(O)c4O)c(O)c(O)c3-c3c(cc(O)c(O)c3O)C(=O)O[C@H]2[C@H](OC(=O)c2cc(O)c(O)c(O)c2)[C@H]1OC(=O)c1cc(O)c(O)c(O)c1)c1cc(O)c(O)c(O)c1 (stereo partly shown) [Compound 9, camptothin B] | > 100 | 0.2 | 0.1 | 180.6 ± 4.2 | – | – | – | –
12 | COc1cc(C2Oc3c(OC)cc(CCCO)cc3C2COC2OC(CO)C(O)C(O)C2O)ccc1O [Compound 10, (7′S,8′R)-dihydrodehydrodiconiferyl alcohol-9′-O-β-D-glucoside] | > 100 | > 1000 | > 500 | 16.7 ± 1.4 | – | no inhibitory activity | – | –
13 | O=c1oc2c(Oc3ccc(O)c(O)c3O)c(O)cc3c(=O)oc4c(O)c(O)cc1c4c23 [Compound 11, rubuphenol] | > 100 | 4.7 ± 0.3 | 2.4 | 514.8 ± 11.2 | – | no inhibitory activity | remarkable activities | –
14 | O=c1oc2c(O)c(Oc3ccc(O)c(O)c3O)cc3c(=O)oc4c(O)c(O)cc1c4c23 [Compound 12, eschweilenol A] | > 100 | 2.9 ± 0.1 | 2.4 | 484.5 ± 12.5 | – | no inhibitory activity | remarkable activities | –
15 | COc1cc([C@H]2Oc3c(OC)cc(CCCO)cc3[C@@H]2CO)ccc1O [Compound 13] | > 100 | > 1000 | > 500 | 17.2 ± 1.1 | – | no inhibitory activity | – | –
16 | O=c1oc2c(O)c(O)cc3c(=O)oc4c(O)c(O)cc1c4c23 [Ellagic acid, reference compound] | > 100 | 2.5 ± 0.1 | 1.8 ± 0.1 | 11.4 ± 0.1 | – | little effect | – | –
17 | O=C(O)c1cc(O)c(O)c(O)c1 [Gallic acid] | – | 27 ± 2.6 | 14.7 ± 2 | 720.1 ± 54.1 | > 100 | little effect | remarkable activities | –
18 | O=C(C[n+]1ccsc1)c1ccccc1.[Br-] [N-Phenacylthiazolium bromide (PTB), N-phenacylthiazolium bromide, reference compound] | – | – | – | 100 | – | – | – | –
19 | O=C(O[C@@H]1O[C@@H]2COC(=O)c3cc(Oc4c(C(=O)O[C@@H]5O[C@@H]6COC(=O)c7cc(O)c(O)c(O)c7-c7c(cc(O)c(O)c7O)C(=O)O[C@H]6[C@H](OC(=O)c6cc(O)c(O)c(O)c6)[C@H]5OC(=O)c5cc(O)c(O)c(O)c5)cc(O)c(O)c4O)c(O)c(O)c3-c3c(cc(O)c(O)c3O)C(=O)O[C@H]2[C@H](OC(=O)c2cc(O)c(O)c(O)c2)[C@H]1OC(=O)c1cc(O)c(O)c(O)c1)c1cc(O)c(O)c(O)c1 [rugosin D, reference compound] | – | – | – | – | – | – | – | comparable to that of acarbose
20 | Cornusiin G [reference compound] | – | – | – | – | 6.3 ± 0.1 | – | – | comparable to that of acarbose
